According to publication PMC9612005 (Pharmaceutics, 2022):
Several values for one entry are separate records, joined by “and”; a condition that tells them apart may be missing. Equal entries are not always repeated. Where two headings read alike, the source gives them in different places.

What was measured:
retinal ganglion cells = assay: Light-evoked retinal ganglion cell spike responses of mouse retinal explants on MEA; type: cell-based; conditions: for Spike count (10 ms bin): inh 50 µM, act 0.1 µM, mean ±std; for drop of RGC spiking activity: ≥−2.0 log
Description: Further animal experiments were performed using adult postnatal-day (P) 25–30 C57BL/6J mice (n = 12). Animals were housed under standard 12 h white cyclic lighting, had free access to food, water, and playgrounds, and were used irrespective of gender. Animal protocols compliant with §4 of the German law on animal protection were reviewed and approved by the Tübingen University committee on animal protection, and registered on 30 March 2022 under the No. AK05/22M. Moreover, experiments were performed in accordance with the ARVO statement for the use of animals in ophthalmic and visual research. All efforts were made to minimize the number of mice used and their suffering.
The mice were kept overnight in a ventilated light-tight box for dark-adaption. Subsequent procedures were performed under dim red light. The eyes of the mice were enucleated; then, the retina was isolated in extracellular solution containing (in mM): 125 NaCl, 26 NaHCO3, 2.5 KCl, 2 CaCl2, 1 MgCl2, 1.25 NaH2PO4, and 20 glucose, and was maintained at pH 7.4 using carboxygen perfusion (95/5% O2/CO2). All chemicals were obtained from Merck KGaA (Darmstadt, Germany). For MEA recording, the retinas were placed in the MEA-recording chamber (GC-side down). During the recordings, the tissue was perfused with carboxygenated medium at 32 °C. The chamber perfusion rate was adjusted to 2 mL/min.
Electrophysiological recordings were performed to assess the light dependent retinal responses (photoreceptors µERG and RGCs spikes) by means of a multi-electrode array system (MEA, USB-MEA60-Up-BC-System-E from Multi Channel Systems, Reutlingen, Germany) equipped with MEA 200/30iR-ITO-pr. The recordings were performed at a 25,000 Hz sampling-rate collecting unfiltered raw data. The trigger-synchronized operation of the light stimulation (LEDD1B T-Cube, Thorlabs) and MEA recording were controlled by the recording protocol set within the MCRack software (v 4.6.2, Multi Channel Systems, Reutlingen, Germany) and the digital I/O box (MCS). The light stimulation (white light LED, 2350 mW, MCWHD3, Thorlabs, Newton, NJ, USA) was applied from beneath the transparent glass MEA, guided by optic fiber and optics. A spectrometer USB4000-UV-VIS-ES (Ocean Optics, Orlando, FL, USA) was employed to calibrate the intensity of the applied light-stimulation protocol. To discriminate the rod and cone photoreceptor responses, a light-stimulation protocol for ex vivo MEA recordings was established following the standard in-vivo ERG protocol. For scotopic recordings (rod responses), the animals were dark-adapted (12 h), while for the photopic recordings (cone responses), the retinal explants were light-adapted on the MEA (5 min at intensity of 4.20 × 10^13 photons/cm^2/s), subsequent to scotopic stimulation. The parameters of the light stimuli were set as: light flash 250 ms long (3 repetition per light intensity, 20 s interval). Scotopic: 10 stimuli in 0.5 log steps from −4.5 to 0.0 (1.33 × 10^9–4.20 × 10^13 photons/cm^2/s). Photopic (background light: 4.20 × 10^13 photons/cm^2/s): four stimuli in 0.5 log steps from +0.5 to +2.0 (1.33 × 10^14–4.20 × 10^15 photons/cm^2/s).
MEA-recorded raw data files were filtered employing a Butterworth 2nd order filter (MC-Rack, Multi-channel systems) to extract the µERG (field potentials: bandpass 0.01–100 Hz) and spikes (high pass 200 Hz). The filtered data were converted to *.hdf files by MC DataManager (v1.6.1.0, Multi Channel Systems, Reutlingen, Germany) for further data processing in MATLAB [39]. Shown traces data are the average of 30 MEA recording electrodes, per condition. n = 5 retinae were recorded per condition. Statistical significance was estimated by one-way ANOVA followed by the Dunnett´s test for multiple comparisons. Experimental data are given as mean ± SEM.

[1] = target: T1, rod CNG channels (CNGA1:CNGB1a) (Bos taurus, UniProt Q00194+Q28181); assay: Patch-clamp on inside-out patches, heterotetrameric rod CNG channels expressed in Xenopus laevis oocytes; type: cell-based, bovine
T1 construct: expressed in transfected cells; host or cells: Xenopus laevis oocytes (cRNA injection, pGEMHE vector); inside-out patches
From the text: The patch pipettes were pulled from borosilicate glass tubing (outer diameter 2.0 mm, inner diameter 1.0 mm; Hilgenberg GmbH, Malsfeld, Germany). The initial resistance of the solution-filled pipettes was 0.6–1.4 MΩ. […] For studying the activation and deactivation kinetics of CNG channels, we performed fast jumps between different ligand concentrations by means of a double-barreled θ-glass pipette mounted on a piezo-driven device, which was controlled by the computer. For measuring the time courses, the recording rate was 20 kHz. […]

[2] = photopic, light intensity +0.5 log
[3] = photopic, light intensity +1.0 log
[4] = photopic, light intensity +1.5 log
[5] = photopic, light intensity +2.0 log
[6] = scotopic, light intensity 0.0 log
[7] = scotopic, light intensity -0.5 log
[8] = scotopic, light intensity -1.0 log
[9] = scotopic, light intensity -1.5 log
[10] = scotopic, light intensity -2.0 log
[11] = scotopic, light intensity -2.5 log
[12] = scotopic, light intensity -3.0 log
[13] = scotopic, light intensity -3.5 log
[14] = scotopic, light intensity -4.0 log
[15] = scotopic, light intensity -4.5 log
[16] = scotopic, inhibitor 50 µM, activator 0.1 µM

T1 sequence (Q00194 whole entry): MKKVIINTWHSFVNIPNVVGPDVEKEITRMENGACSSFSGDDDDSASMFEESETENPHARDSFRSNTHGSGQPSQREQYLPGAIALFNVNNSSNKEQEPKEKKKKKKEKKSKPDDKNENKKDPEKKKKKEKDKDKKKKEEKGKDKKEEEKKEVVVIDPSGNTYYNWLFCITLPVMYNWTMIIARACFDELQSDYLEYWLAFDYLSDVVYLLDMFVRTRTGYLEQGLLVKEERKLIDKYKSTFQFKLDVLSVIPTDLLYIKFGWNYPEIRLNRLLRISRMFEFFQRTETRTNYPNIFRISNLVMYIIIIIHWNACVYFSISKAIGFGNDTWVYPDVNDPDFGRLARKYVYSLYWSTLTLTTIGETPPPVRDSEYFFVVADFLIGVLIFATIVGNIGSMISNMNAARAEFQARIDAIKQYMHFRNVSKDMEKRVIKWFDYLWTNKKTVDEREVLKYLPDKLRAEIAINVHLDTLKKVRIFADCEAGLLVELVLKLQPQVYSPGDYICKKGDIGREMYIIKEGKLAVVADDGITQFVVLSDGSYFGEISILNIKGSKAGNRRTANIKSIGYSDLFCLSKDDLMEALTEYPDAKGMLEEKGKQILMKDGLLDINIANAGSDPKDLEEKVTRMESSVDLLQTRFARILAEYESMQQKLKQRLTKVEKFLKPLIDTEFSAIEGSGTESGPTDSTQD
T1 sequence (Q28181 whole entry): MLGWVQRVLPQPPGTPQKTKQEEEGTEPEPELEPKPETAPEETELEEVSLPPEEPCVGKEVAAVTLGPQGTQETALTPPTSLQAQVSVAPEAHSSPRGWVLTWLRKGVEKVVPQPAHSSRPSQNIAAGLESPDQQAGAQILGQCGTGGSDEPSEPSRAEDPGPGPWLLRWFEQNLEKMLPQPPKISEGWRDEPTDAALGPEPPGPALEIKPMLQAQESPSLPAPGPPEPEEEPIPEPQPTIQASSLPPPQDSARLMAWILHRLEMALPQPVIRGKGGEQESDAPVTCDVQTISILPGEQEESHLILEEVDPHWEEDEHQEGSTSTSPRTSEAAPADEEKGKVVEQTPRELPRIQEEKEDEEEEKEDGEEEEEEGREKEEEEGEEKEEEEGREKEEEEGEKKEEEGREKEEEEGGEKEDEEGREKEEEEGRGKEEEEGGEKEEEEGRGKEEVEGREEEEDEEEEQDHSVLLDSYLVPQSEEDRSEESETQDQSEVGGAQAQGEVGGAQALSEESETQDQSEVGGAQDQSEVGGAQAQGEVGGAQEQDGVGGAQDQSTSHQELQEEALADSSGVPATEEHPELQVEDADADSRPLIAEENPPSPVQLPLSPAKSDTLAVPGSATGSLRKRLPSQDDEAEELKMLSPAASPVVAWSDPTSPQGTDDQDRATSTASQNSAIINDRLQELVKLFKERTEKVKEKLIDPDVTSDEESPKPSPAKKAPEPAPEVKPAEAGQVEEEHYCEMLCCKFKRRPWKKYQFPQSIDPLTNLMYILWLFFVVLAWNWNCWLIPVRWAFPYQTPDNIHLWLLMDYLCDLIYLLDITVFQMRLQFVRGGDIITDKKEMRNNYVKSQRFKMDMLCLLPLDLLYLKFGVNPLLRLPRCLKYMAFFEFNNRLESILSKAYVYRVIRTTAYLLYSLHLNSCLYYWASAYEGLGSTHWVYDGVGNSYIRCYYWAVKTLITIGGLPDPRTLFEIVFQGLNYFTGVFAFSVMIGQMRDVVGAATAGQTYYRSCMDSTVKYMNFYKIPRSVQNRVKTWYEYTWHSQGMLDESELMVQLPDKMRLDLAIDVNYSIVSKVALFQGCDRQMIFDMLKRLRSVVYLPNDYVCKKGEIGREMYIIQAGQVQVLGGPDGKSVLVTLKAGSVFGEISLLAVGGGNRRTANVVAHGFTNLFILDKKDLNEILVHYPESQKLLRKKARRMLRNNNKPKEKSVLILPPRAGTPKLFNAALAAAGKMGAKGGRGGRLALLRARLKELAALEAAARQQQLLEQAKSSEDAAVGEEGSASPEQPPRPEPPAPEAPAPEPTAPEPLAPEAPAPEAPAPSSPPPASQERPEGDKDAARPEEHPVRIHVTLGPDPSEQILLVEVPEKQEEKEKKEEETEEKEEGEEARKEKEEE

Row | Structure (SMILES) | Spike count (10 ms bin) (retinal ganglion cells; [2]) | Spike count (10 ms bin) (retinal ganglion cells; [3]) | Spike count (10 ms bin) (retinal ganglion cells; [4]) | Spike count (10 ms bin) (retinal ganglion cells; [5]) | Spike count (10 ms bin) (retinal ganglion cells; [6]) | Spike count (10 ms bin) (retinal ganglion cells; [7]) | Spike count (10 ms bin) (retinal ganglion cells; [8]) | Spike count (10 ms bin) (retinal ganglion cells; [9]) | Spike count (10 ms bin) (retinal ganglion cells; [10]) | Spike count (10 ms bin) (retinal ganglion cells; [11]) | Spike count (10 ms bin) (retinal ganglion cells; [12]) | Spike count (10 ms bin) (retinal ganglion cells; [13]) | Spike count (10 ms bin) (retinal ganglion cells; [14]) | Spike count (10 ms bin) (retinal ganglion cells; [15]) | drop of RGC spiking activity (retinal ganglion cells; [16]) | also measured
1 | O=c1c2nc(Br)n([C@@H]3O[C@@H]4CO[P@@](=O)(S)O[C@H]4[C@H]3O)c2nc2[nH]c(-c3ccccc3)cn12 [Rp-8-Br-PET-cGMPS] | 4.85± 0.92 | 4.40± 0.94 | 4.51± 1.07 | 4.92± 1.12 | 3.80± 0.26 | 3.48± 0.49 | 2.91± 0.16 | 2.80± 0.63 | 2.55± 0.62 | 0.83± 0.28 | 0.72± 0.10 | 1.14± 0.50 | 0.98± 0.44 | 1.03± 0.27 | 30–40% | RGC spiking activity under photopic stimulation (retinal ganglion cells; ≥+0.5 log, inhibitor 50 µM, activator 0.1 µM): remained nearly at control levels; EC50 [1]: 0.45 µM; decrease in the apparent affinity of rod CNG channels (increase of cGMP EC50) ([1]; 50 µM analogue): ~ 4.9 fold and ~ 5 fold; H (Hill coefficient), rod CNG channels ([1]; cGMP + 50 µM of the cGMP analogue): 1.90
2 | Nc1nc2c(nc(Sc3ccc(Cl)cc3)n2[C@@H]2O[C@@H]3COP(=O)(O)O[C@H]3[C@H]2O)c(=O)[nH]1 [8-pCPT-cGMP] | 4.35± 0.79 | 4.43± 0.47 | 4.74± 1.09 | 4.56± 0.92 | 3.92± 0.24 | 3.60± 0.35 | 3.03± 0.52 | 3.04± 0.49 | 2.41± 0.38 | 1.28± 0.51 | 0.73± 0.49 | 0.86± 0.30 | 0.89± 0.07 | 0.67± 0.22 | 35–47% | effect on rod channels ([1]; 0.1 µM): almost no effect on rod channels; potency compared to cGMP, rod channel ([1]; higher potency than cGMP): ~ 63 times; H (Hill coefficient), rod CNG channels ([1]; ligand alone): 2.2; EC50 ([1]; ligand alone, concentration-activation relationship, Hill fit, read-out: EC50, rod CNG channels): 0.63 µM
